For test [1], the target named is TylF (Streptomyces fradiae, UniProt Q9S4D5, Y139F). Briefly: biochemical.
For test [2], the target named is TylF (Streptomyces fradiae, UniProt Q9S4D5). Description: biochemical.
Sequence of TylF (Streptomyces fradiae, UniProt Q9S4D5) (Q9S4D5 whole entry): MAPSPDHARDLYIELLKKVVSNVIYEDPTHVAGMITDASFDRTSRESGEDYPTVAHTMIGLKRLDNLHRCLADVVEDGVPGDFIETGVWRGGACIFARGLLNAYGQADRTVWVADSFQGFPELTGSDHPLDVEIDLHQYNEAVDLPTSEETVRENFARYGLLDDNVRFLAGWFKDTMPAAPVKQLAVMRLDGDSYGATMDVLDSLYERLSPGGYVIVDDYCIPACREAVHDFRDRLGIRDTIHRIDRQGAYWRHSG

Sequence of TylF (Streptomyces fradiae, UniProt Q9S4D5, Y139F) (Q9S4D5 whole entry Y139F): as the sequence (Q9S4D5 whole entry) above, with Y139F counted along it

In the case of `C[S+](CC[C@H](N)C(=O)O)C[C@H]1O[C@@H](n2cnc3c(N)ncnc32)[C@H](O)[C@@H]1O` (some centres unmarked) [SAM], the Kd on TylF [1] was 265 ± 24.3 µM; at TylF [2], 162 ± 91.6 µM.

These data come from article PMC10172623 (Computational and Structural Biotechnology Journal, 2023).
